Laboratory results published in article PMC5613217 (Biochemistry and Biophysics Reports, 2017).

How the values were obtained:
MtbNei2 (Rv3297) [1] = target: T1, MtbNei2 (Rv3297) (Mycobacterium tuberculosis, UniProt P9WNC1); experiment: In vitro inhibition of Uracil DNA glycosylase activity of MtbNei2; format: biochemical; conditions: for Inhibition of Uracil DNA glycosylase activity (in words): 50-800 µM inhibitor, 80 nM MtbNei2
T1 sequence (P9WNC1 1-255): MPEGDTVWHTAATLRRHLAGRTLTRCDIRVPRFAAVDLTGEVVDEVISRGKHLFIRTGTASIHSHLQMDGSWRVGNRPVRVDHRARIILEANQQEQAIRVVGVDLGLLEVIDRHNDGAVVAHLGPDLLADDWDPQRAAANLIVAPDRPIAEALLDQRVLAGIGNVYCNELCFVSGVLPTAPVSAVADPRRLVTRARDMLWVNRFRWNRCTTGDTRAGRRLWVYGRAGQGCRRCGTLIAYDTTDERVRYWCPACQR

MtbNei2 (Rv3297) [2] = target: T1, MtbNei2 (Rv3297); experiment: In vitro inhibition of AP site cleavage; format: biochemical; conditions: for Inhibition of AP site cleavage activity (in words): 50-800 µM inhibitor, 80 nM MtbNei2

Which results are given for `COc1c2c(cc3c1[C@@H]1Oc4c(ccc(O)c4CC=C(C)C)[C@@H]1CO3)OC(C)(C)C=C2` [NSC250430, Gangetin]?
IC50 (MtbNei2 (Rv3297) [1]): 76.2 µM; Inhibition of Uracil DNA glycosylase activity (in words) (MtbNei2 (Rv3297) [1]): good inhibition; IC50 (MtbNei2 (Rv3297) [2]): 43.6 µM; Inhibition of AP site cleavage activity (in words) (MtbNei2 (Rv3297) [2]): good inhibition

With `C[C@H]1Oc2cc3c(-c4c(O)cc(O)c5c(O)c6c(cc45)O[C@H](C)[C@@H](C)C6=O)c(O)cc(O)c3c(O)c2C(=O)[C@@H]1C` [NSC345647, Chaetochromin] as the compound, how does the IC50 (MtbNei2 (Rv3297) [1]) read?
The IC50 was 92.7 µM.

What about the “Inhibition of Uracil DNA glycosylase activity (in words)” value (MtbNei2 (Rv3297) [1]) of the same compound?
Its value is “good inhibition”.

What about the IC50 (MtbNei2 (Rv3297) [2]) of the same compound?
The IC50 was 84.7 µM.

And the “Inhibition of AP site cleavage activity (in words)” value (MtbNei2 (Rv3297) [2])?
The value was “good inhibition”.
